Results as given in PMC11157767 (Molecular Cancer, 2024).
Several values for one entry are separate records, joined by “and”; a condition that tells them apart may be missing. Identical values can stand only once. Like-named read-outs stand apart in the source and are kept apart here.

What was measured:
[1] = humans, 400 mg BID orally; cited from earlier work
[2] = tested on: murine TFG-MET tumor cells; experiment: cells; settings: Mus musculus
Description: To calculate unbound EC50 and EC90 values, total values were multiplied with unbound drug fractions in culture media (Table 1).

[3] = Brain pharmacokinetics in CD-1 nude mice (NCA); format: in vivo, mouse
Method: (§1) Fig. 2 TFG-MET-driven mouse model and pharmacokinetic profiles of MET inhibitors. a Schematic illustrating the method and utilized vectors to induce CRISPR/Cas9-mediated Trp53 deletion and TFG-MET overexpression following in utero electroporations. b H&E staining and Immunohistochemical analysis of a tumor generated by in utero electroporation, visualized by the HA-tag of TFG-MET. […] Three mice were analyzed per compound and time point. Error bars indicate the standard deviation. Dashed rectangles indicate time windows of radiation in the following preclinical allograft study
(§2) See Methods – Pharmacokinetics section for a description of abbreviations.

TRIM24-MET-r cells = experiment: 3-day dose-response assay, TRIM24-MET-r cells; format: cell-based; settings: Homo sapiens, TRIM24-MET-r
TRIM24-MET-i cells = experiment: 3-day dose-response assay, TRIM24-MET-i cells; format: cell-based; settings: Homo sapiens, TRIM24-MET-i
[4] = tested on: murine TFG-MET tumor cells; settings: 7 days; RT 0Gy - 8Gy
Method: For both compounds 1 µM was used as positive control.
Compound concentrations comprised 10µM and 9 serial 1:3 dilutions in 4 replicates each and radiation doses ranged from 0Gy – 8Gy. […] Tested compound concentrations comprised 10 µM and 9 serial 1:3 dilutions in 4 replicates each. ZIP synergy scores were calculated based on cell numbers according to the CellTiter-Glo Assay by using the synergyfinder tool.

TFG-MET allograft tumors = experiment: TFG-MET allograft preclinical trial in CD1 mice, Survival cohort (survival, BLI, body weight); format: in vivo, mouse; settings: for BLI signal, individual mice: Murine allografts
Method: All treatments started 1 week after transplantation. Radio therapy was administered for 6 days, delivering 12 Gy total. Compound treatment was continued for 84 days. […] N = 8 (vehicle arms) or n = 10 (compound-treated arms), respectively. […] First row is depicted in another intensity scale to visualize tumors in all mice. The depicted scale bar indicates the range from 5x10^5-1x10^7 photons/sec/cm^2/sr.
Survival, body weight and tumor burden data from TFG-MET allograft-bearing mice. a,Schematic illustrating the preliminary in vivo study to determine the efficacy of RT alone. b, Survival curve of mice depicted in a. […] Each line represents one mouse. The ends of lines indicate the onset of neurological symptoms and thereby the endpoints.
Bioluminescence signals of in vivo trials.

[5] = Plasma pharmacokinetics in CD-1 nude mice (NCA); format: in vivo, mouse
Method: as §1, §2

[6] = CD-1 nude, mouse, 25 mg/kg, Brain, NCA estimate
[7] = CD-1 nude, mouse, Brain, NCA estimate
[8] = 72 h, 3-day dose response, read-out: EC90 Total
[9] = total value multiplied with unbound fraction in culture media, read-out: EC90 Unbound
[10] = CD-1 nude, mouse, Plasma, NCA estimate

## CNC(=O)c1ccc(-c2cnc3ncc(Cc4ccc5ncccc5c4)n3n2)cc1F [Capmatinib]
[1]
  mean steady total plasma AUC: 17,300 hr-ng/mL
[2]; read-out: EC90 (nM) Total
  EC90: 29.9 nM
[2]; read-out: EC90 (nM) Unbound*
  EC90: 21.1 nM
[3]; Brain, NCA estimate
  Clast: 42.4 µg/L
  Tlast: 8 h
[3]; CD1 nude mice
  brain concentration at 16 hours post-dose: below the detection limit
[3]; CD1 nude mice, estimated with Fu,b
  maximal concentration of unbound drug in the brain: ~ 103 nM
[3]; CD1 nude mice, total drug
  concentration reached in brain tissues: > 1 µM
[3]; [6]
  AUC(0-inf): 1260 ng·h/mL
  CL/F: 330 mL/min/kg
  half-life: 140 min
  k el: 8.22e-05 s⁻¹
[3]; CD-1 nude, mouse, 25 mg/kg, Brain, NCA estimate, read-out: Kp,inf
  Kp: 0.0768
[3]; CD-1 nude, mouse, 25 mg/kg, Brain, NCA estimate, read-out: Vz/F
  Vd/F: 67 L/kg
[3]; [7]
  AUC(0-t): 1140 ng·h/mL
  Cmax: 486 ng/mL
  Tmax: 30 min
[3]; CD-1 nude, mouse, Brain, NCA estimate, read-out: Kp,last
  Kp: 0.0765
[3]; mouse, in vivo
  time after administration with higher effective exposure in the murine brain than crizotinib: up to 8 hours
TRIM24-MET-r cells; [8]
  EC90: 199 nM
TRIM24-MET-r cells; [9]
  EC90: 141 nM
TRIM24-MET-i cells; [8]
  EC90: 5.93 nM
TRIM24-MET-i cells; [9]
  EC90: 4.18 nM
[4]
  combination effect with RT (ZIP synergy model): additive effect with a trend towards synergy
TFG-MET allograft tumors; day 7, drug + RT
  BLI signal, individual mice: 2.90E+08 and 3.10E+06 and 2.30E+07 and 4.30E+06 and 9.70E+05 and 1.20E+06 and 8.80E+06 and 3.20E+06 and 7.40E+06 and 6.80E+07
TFG-MET allograft tumors; day 7, drug alone
  BLI signal, individual mice: 2.90E+06 and 5.20E+06 and 4.80E+06 and 3.30E+07
TFG-MET allograft tumors; day 10, drug + RT
  BLI signal, individual mice: 1.80E+08 and 2.30E+06 and 4.90E+07 and 1.20E+07 and 6.70E+06 and 5.70E+05 and 1.10E+07 and 1.60E+06 and 6.20E+06 and 3.60E+07
TFG-MET allograft tumors; day 10, drug alone
  BLI signal, individual mice: 2.30E+06 and 7.80E+06 and 1.50E+07 and 6.40E+07
TFG-MET allograft tumors; day 14, drug + RT
  BLI signal, individual mice: 2.10E+08 and 3.20E+06 and 6.50E+07 and 1.30E+07 and 3.10E+05 and 1.60E+05 and 7.60E+06 and 6.60E+05 and 1.20E+08
TFG-MET allograft tumors; day 14, drug alone
  BLI signal, individual mice: 8.30E+06 and 6.10E+07 and 2.00E+07 and 6.20E+07
TFG-MET allograft tumors; day 21, drug + RT
  BLI signal, individual mice: 1.10E+05 and 1.60E+05 and 1.30E+05 and 1.50E+07 and 5.10E+06 and 3.60E+06 and 6.20E+06 and 1.40E+05 and 9.20E+06
TFG-MET allograft tumors; day 21, drug alone
  BLI signal, individual mice: 8.80E+07 and 2.30E+08 and 7.60E+07 and 2.10E+08
TFG-MET allograft tumors; day 28, drug + RT
  BLI signal, individual mice: 1.10E+05 and 1.60E+05 and 2.00E+05 and 2.20E+08 and 4.30E+07 and 3.30E+07 and 5.10E+07 and 1.50E+05 and 5.80E+06
TFG-MET allograft tumors; day 28, drug alone
  BLI signal, individual mice: 5.10E+08 and 5.20E+08 and 2.60E+08 and 1.90E+08
TFG-MET allograft tumors; day 35, drug + RT
  BLI signal, individual mice: 1.10E+05 and 1.50E+05 and 1.40E+05 and 9.90E+05 and 1.00E+07
TFG-MET allograft tumors; day 42, drug + RT
  BLI signal, individual mice: 1.20E+05 and 1.30E+05 and 1.40E+05 and 2.50E+06 and 4.40E+07
TFG-MET allograft tumors; day 49, drug + RT
  BLI signal, individual mice: 1.30E+05 and 1.20E+05 and 7.40E+06
TFG-MET allograft tumors; day 56, drug + RT
  BLI signal, individual mice: 1.00E+05 and 1.40E+05 and 1.50E+05 and 6.60E+07 and 1.20E+08
TFG-MET allograft tumors; day 63, drug + RT
  BLI signal, individual mice: 1.10E+05 and 2.00E+05 and 1.40E+05 and 1.90E+08
TFG-MET allograft tumors; day 70, drug + RT
  BLI signal, individual mice: 1.10E+05 and 1.20E+05
TFG-MET allograft tumors; day 77, drug + RT
  BLI signal, individual mice: 1.02E+05 and 1.30E+05 and 1.10E+05
TFG-MET allograft tumors; day 84, drug + RT
  BLI signal, individual mice: 1.06E+05 and 9.93E+04 and 1.20E+05
TFG-MET allograft tumors; day 91, drug + RT
  BLI signal, individual mice: 9.34E+04 and 1.44E+05 and 1.14E+05
TFG-MET allograft tumors; capmatinib + RT (12 Gy)
  animals with reduction of tumor burden by week 3 (BLI): 8/10
TFG-MET allograft tumors; capmatinib + RT (12 Gy), Survival cohort
  increase of survival rate: 3 fold
TFG-MET allograft tumors; capmatinib + RT arm, n = 10
  mice reaching 140 days after transplantation without residual tumor: Three
[5]; CD1 nude mice
  plasma concentration at 16 hours post-dose: below the detection limit
[5]; CD-1 nude, mouse, plasma, 25 mg/kg, read-out: total plasma AUC
  AUC: 16400 ng·h/mL
[5]; [10]
  AUC(0-inf): 16400 ng·h/mL
  AUC(0-t): 14900 ng·h/mL
  CL/F: 25.3 mL/min/kg
  Cmax: 6200 ng/mL
  Tmax: 30 min
  half-life: 136 min
  k el: 8.47e-05 s⁻¹
[5]; CD-1 nude, mouse, Plasma, NCA estimate, read-out: Vz/F
  Vd/F: 4.99 L/kg
[5]; Plasma, NCA estimate
  Clast: 540 µg/L
  Tlast: 8 h
